Test results reported in PMC6770071, “XIAP as a Target of New Small Organic Natural Molecules Inducing Human Cancer Cell Death” (Cancers, 2019).
Converted amounts (≈) assume the structure as drawn.

Experiments:
[1] = tested on: MCF7 cells; experiment: Confocal co-localisation of cytochrome c with COX IV, MCF7 cells; type: cell-based, human; conditions: MCF7, 3 h; gibbilimbol B/eriopodol A 30 µg/mL, erioquinol 10 µg/mL
Method: (§1) Using published protocols, MCF7 or U373 cells cultured in 120-mm coverslips were fixed in 4% paraformaldehyde in 0.1 M PB, pH 7.4, for 10 min. Cells were pre-incubated for 1 h min with 5% of normal goat serum (Life Technologies, Monza, Italy) in 0.1 M PB (pH 7.4) containing 0.1% Triton X-100, before overnight incubation with the rabbit monoclonal anti-cleaved caspase 7 (Cell Signaling Technology, Danvers, MA, USA). In double-label immunofluorescence experiments, the mouse monoclonal anti-cytochrome c primary antibody (Cell Signaling Technology) was used in conjunction with the rabbit monoclonal primary antibody directed to COX IV (Cell Signaling Technology). For fluorescence detection, coverslips were stained with the appropriate Alexa Fluor secondary antibodies (Life Technologies) and mounted on glass slides in a ProLong Gold Antifade Mountant (Life Technologies). DAPI and/or fluorescein phalloidin (cytoskeleton detection) staining was also used. Cells were analysed with a DMI4000 B automated inverted microscope equipped with a DCF310 digital camera (Leica Microsystems, Wetzlar, Germany). When indicated, confocal imaging was performed with a TCS SP8 System (Leica Microsystems). Image acquisitions were controlled by the Leica Application Suite X.

[2] = tested on: XIAP; experiment: XIAP expression by real-time PCR and western blot in MCF7 cells; type: cell-based, human; conditions: MCF7, increasing times, gibbilimbol B/eriopodol A 30 μg/mL, erioquinol 10 µg/mL; for XIAP mRNA levels: real-time PCR; for XIAP protein levels: western blot
Source text: Using published protocols, MCF7 and MCF10 cells were homogenised in RIPA lysis buffer, supplemented with a cocktail of protease inhibitors (cOmplete; Roche Diagnostics, Milano, Italy). Equal amounts of proteins were separated by 4–20% SDS-polyacrylamide gel electrophoresis (Criterion TGX Stain-free precast gels and Criterion Cell system; Bio-Rad, Hercules, CA, USA) and transferred onto nitrocellulose membrane using a Bio-Rad Trans-Blot Turbo System. When indicated, the membranes were probed using the rabbit monoclonal anti-cleaved caspase 7 and anti-XIAP (Cell Signaling Technology) primary antibodies. After the incubation with the appropriate horseradish-peroxidase-conjugated secondary antibody (Cell Signaling Technology), bands were visualised using the Clarity Western ECL substrate with a ChemiDoc MP imaging system (Bio-Rad). To monitor for potential artefacts in loading and transfer among samples in different lanes, the blots were routinely treated with the Restore Western Blot Stripping Buffer (ThermoFisher Scientific) and re-probed with the goat anti-Lactate dehydrogenase (LDH)-A (Santa Cruz Biotechnology) and the mouse anti-vinculin primary antibodies. The stain-free gel was used as loading control as well. When appropriated, bands were quantified for densitometry using the Bio-Rad Image Lab software.
The analysis of mRNA expression was performed as previously described. Briefly, total RNA from MCF7 cells was extracted with the High Pure RNA Isolation Kit (Roche Applied Science, Mannheim, Germany), according to the manufacturer’s protocol. First-strand cDNA was generated from 1 μg of total RNA using iScript Reverse Transcription Supermix (Bio-Rad). Primer pairs (Eurofins Genomics, Milano, Italy) for XIAP (NM_001167; forward ACCGTGCGGTGCTTTAGTT, reverse […]) and β-actin (NM_001101; forward […], reverse CACCTTCTACAAT GAGCTGCGTGTG) were designed to hybridise to unique regions of the appropriate gene sequence. PCR was performed using SsoAdvanced Universal SYBR Green Supermix and the CFX96 Touch Real-Time PCR Detection System (Bio-Rad). The fold change was determined relative to the selected control sample after normalising to β-actin (internal standard) by the formula 2^−ΔΔCT.

[3] = tested on: MCF7 cells; experiment: TUNEL assay; type: cell-based, human; conditions: MCF7, 12 h; gibbilimbol B/eriopodol A 30 µg/mL, erioquinol 10 µg/mL
Method: Using published protocols, MCF7 or U373 cells cultured in 120-mm coverslips were fixed in 4% paraformaldehyde in 0.1 M phosphate buffer (PB), pH 7.4, for 10 min. The TUNEL method (DeadEnd Fluorometric TUNEL System, Promega) was used to assay apoptosis, according to the manufacturer’s protocol. DAPI (nuclei detection) staining was also performed.

[4] = tested on: U373 cells; experiment: MTT cell viability assay, U373 cells; type: cell-based, human; conditions: for IC50: Homo sapiens, U373 MG, MTT, 24 h, read-out: IC50 (μg/mL) U373 Cells
Method: (§2) Human U373 glioma, MCF7 breast cancer, A549 lung cancer and PC-3 prostate cancer cells were grown in Dulbecco’s Modified Eagle Medium (DMEM), supplemented with 10% foetal bovine serum, 2 mM glutamine, 100 U/mL penicillin/streptomycin, at 37 °C in a humidified atmosphere containing 5% CO2 (logarithmic growth phase, routine passages every 3 days). The human breast epithelial cell line MCF10 was cultured in DMEM/F12 Ham’s Mixture supplemented with 5% horse serum, epithelial growth factor 20 ng/mL, insulin 10 μg/mL, hydrocortisone 0.5 mg/mL, cholera toxin 100 ng/mL, and 100 U/mL penicillin/streptomycin. HUVEC were grown in EGM-2 Endothelial Cell Growth Medium-2 BulletKit (Lonza, Basel, Switzerland), according to the manufacturer’s protocol.
(§3) U373, MCF7, A549, PC-3, HUVEC, and MCF10 cell viability was determined by MTT assay using published protocols. MTT absorbance was quantified spectrophotometrically using a Glomax Multi Detection System microplate reader (Promega, Milano, Italy).
Statistical significance of raw data between the groups in each experiment was evaluated using unpaired Student’s t-test (single comparisons) or one-way ANOVA followed by the Newman-Keuls post-test (multiple comparisons). The IC50 and Emax concentration were determined by non-linear regression curve analysis of the concentration-effect responses. Potency values among concentration-response curves were compared with the F-test. Data belonging from different experiments were represented and averaged in the same graph. The GraphPad Prism software package (GraphPad Software, San Diego, CA, USA) was used. The results were expressed as means ± standard error of mean (SEM) of the indicated n values.

[5] = tested on: MCF7 cells; experiment: Bright field microscopy and DAPI staining of cell morphology; type: cell-based, human; conditions: MCF7, 6 h; for cell morphology, bright field microscopy: increasing concentrations; for nuclei, DAPI staining: gibbilimbol B/eriopodol A 30 µg/mL, erioquinol 10 µg/mL
Method: as §1

[6] = tested on: A549 cells; experiment: MTT cell viability assay, A549 lung cancer cells; type: cell-based; conditions: Homo sapiens, 24 h
Method: as §2, with “HUVEC were grown in EGM-2 Endothelial Cell Growth Medium-2 BulletKit (Lonza, Basel, Switzerland), according to the manufacturer’s protocol.” left out
as §3
(§4) Statistical significance of raw data between the groups in each experiment was evaluated using unpaired Student’s t-test (single comparisons) or one-way ANOVA followed by the Newman-Keuls post-test (multiple comparisons). The IC50 and Emax concentration were determined by non-linear regression curve analysis of the concentration-effect responses. […] The results were expressed as means ± standard error of mean (SEM) of the indicated n values.

[7] = tested on: human umbilical vein endothelial cells (HUVEC); experiment: MTT cell viability assay, HUVEC; type: cell-based; conditions: 24 h
Method: as §2, with “HUVEC were grown in EGM-2 Endothelial Cell Growth Medium-2 BulletKit (Lonza, Basel, Switzerland), according to the manufacturer’s protocol.” left out
as §3, §4

[8] = tested on: caspase 7; experiment: Cleaved-caspase 7 immunofluorescence in U373 cells; type: cell-based, human; conditions: U373, 6 h; gibbilimbol B/eriopodol A 30 µg/mL, erioquinol 10 µg/mL
Method: as §1

Structure (SMILES)	subcellular location of cytochrome c [1]	XIAP mRNA levels [2]	XIAP protein levels [2]	TUNEL staining (DNA fragmentation) [3]	IC50 [4] [µg/mL]	concentration-dependent inhibition of MTT absorbance with 50 µM necrostatin-1 and 10 µM ferrostatin-1 ([4]; U373, 24 h, 2 h pre-treatment with inhibitors)	cell morphology, bright field microscopy [5]	nuclei, DAPI staining [5]	IC50 [6] [µg/mL]	IC50 [7] [µg/mL]	activation of caspase 7 [8]
CCCCCC/C=C\CCC1(O)C=CC(=O)C=C1 [Erioquinol, (Z)-4-(dec-3′-enyl)-4-hydroxycyclohexa-2,5-dien-1-one]	release of cytochrome c	did not significantly modify	did not significantly modify	DNA fragmented cells were few	1.78 (≈ 7.17 µM)	did not change	translucent cytoplasm and no overall nuclei condensation	appearence of multinucleated cells	2.65 (≈ 10.7 µM)	0.36 (≈ 1.45 µM)	
CCCCCC/C=C/CCc1ccc(O)cc1 [Gibbilimbol B, (E)-4-(dec-3′-enyl)phenol]	release of cytochrome c	did not significantly modify	did not significantly modify	inter-nucleosomal degradation of genomic DNA typical of late apoptotic cells	16.8 (≈ 72.3 µM)		morphological hallmarks of apoptosis	nuclei of cells undergoing apoptosis		11.5 (≈ 49.4 µM)	activation of caspase 7
